# From patent publication US8178579B2, “Dioxanes and uses thereof” (President and Fellows of Harvard College, priority 2001, dated 2012)
# Entries after “also recorded” stand apart in the source; their conditions may differ.
# Test system: rat hippocampal neurons and astrocytes
# Experiment: cultured rat hippocampal neurons and astrocytes: viability, acetylated α-tubulin, synaptotagmin
# Format: cell-based
# Description: All cells were cultured at 37° C. in a humidified incubator supplemented with 5% carbon dioxide. Human A549 lung carcinoma cells, Human HT-1080 fibrosarcoma cells, BSC-1 African green monkey kidney epithelial cells (all from American Tissue Culture Collection) were cultured in Dulbecco's modified eagle medium (DMEM) supplemented with 10% fetal bovine serum, 100 units/mL penicillin G sodium, 100 μg/mL streptomycin sulfate, and 2 mM L-glutamine (DMEM+). Human TAg Jurkat cells and mouse ROSA26 embryonic stem cells (gift of E. Roberston, Harvard University) were cultured as described (12). Mouse NIH-3T3 wild-type (Neo), HDAC6, HDAC6 double mutant, and HDAC1 overexpressing cells (gift from C. Hubbert, Duke University) were cultured as described (C. Hubbert et al., Nature 417, 455 (2002)1). Hippocampal neurons were dissociated from 1-day old rats and grown in culture using methods as described (E. N. Star, D. J. Kwiatkowski and V. N. Murthy, Nat. Neurosci. 5, 239 (2002)). All animal experiments were approved by Harvard University's standing committee on the use of animals in research and training.
# Detection of acetylated α-tubulin and acetylated histones by immunofluorescence was performed as described in Example 6 above. […] For co-localization experiments, biotubacin (50 μM) treated A549 cells were fixed in 3.7% formaldehyde in TBS and processed as for detecting acetylated α-tubulin (See Example 6 above) with biotubacin detected using streptavidin-TR (1:500). HDAC6 was detected using a rabbit polyclonal antibody (1:250-1:750; C.M.G., unpublished data) under the conditions used to detect acetylated α-tubulin (See Example 6 above). Filamentous actin in HT-1080 cells was detected using TR-conjugated phalloidin (1 μg/mL), and depolymerized actin using FITC-conjugated deoxyribonuclease (10 μg/mL), following fixation in 3.7% formaldehyde in TBS. p58 (1:100) in NIH-3T3 cells was detected after fixation in 3.7% formaldehyde in TBS. […]
smiles,measurement,setting,value
O=C(CCCCCCC(=O)Nc1ccc([C@@H]2OC(c3ccc(CO)cc3)C[C@H](CSc3nc(-c4ccccc4)c(-c4ccccc4)o3)O2)cc1)NO (stereo partly drawn) [tubacin],viability and morphology of neurons and astrocytes,"7-day old cultures: greater than 5 μM (10 μM, 48 h), 10-day old cultures: 1-2 μM, 96 h",decreased the viability and staining with synaptotagmin; also recorded: had no affect on the viability of 10-day old neurons and astrocytes; also recorded: caused morphological changes and cell death; also recorded: did not cause a significant decrease in the number of 10-day old rat hippocampal neurons or astrocytes
same,α-tubulin acetylation in neurons and astrocytes,"tubacin 1 μM 96 h or 10 μM 48 h, niltubacin 5 μM",increased the acetylation of α-tubulin; also recorded: increased α-tubulin acetylation in both cell types
same,synaptotagmin staining / synapses,"tubacin at least 1 μM for four days or 10 μM 48 h, niltubacin 5 μM",decreased the viability and staining with synaptotagmin; also recorded: had fewer synapses when compared to control cells
